Reference: patent US20070065484A1, “In situ occlusion using natural biodegradable polysaccharides” (priority 2005, published 2007)
Like-named read-outs stand apart in the source and are kept apart here.

System: PC-12 cells
Settings: incubation 15 min
Protocol: Cell suspensions were prepared as follows: PC-12 cells (ATCC; passage 5; 75% confluency) were harvested from a T-75 flask using Trypsin-EDTA for 2 minutes. The cells were placed in a 15 mL polyethylene conical (VWR) and centrifuged in F-12k media without serum for 4 minutes at 500 rpm. The cells were counted using a hemocytometer, centrifuged for 4 minutes at 500 rpm, and resuspended at 600,000 cells/mL in sterile PBS.
In order to determine the effect of individual components of the matrix forming compositions on cell viability, solutions A-G were independently mixed with PC-12 cells. 50 uL of cell suspension was added to 350 uL of solutions A-G (Table 4). After a 15 minute incubation, cell viability was assessed using a Live/Dead™ Viability/Cytotoxicity Kit (cat. # L3224; Molecular Probes, Eugene, Oreg.).
The effect of a formed matrix on cell viability was also tested. To form the PD-A matrix, solution #1 (200 mg PD-A, 10 uL TEMED, 20 uL 1N HCl, 470 uL PBS) was added in the amount of 200 uL to a 1.6 ml eppendorf (VWR). Solution #2 (400 mg PD-A, 10 mg Potassium persulfate, 75K PC-12 cells, 500 uL PBS ) was added in the amount of 200 uL to solution #1 in the eppendorf and mixed for 10 seconds. After a 15 minute incubation, cell viability was assessed using the Live/Dead™ Viability/Cytotoxicity Kit.

**Q.** With N.N.O=S(=O)(O)OOS(=O)(=O)O [Ammonium persulfate] as the compound, how does the “Cell viability (%)” value (10 mg/ml in PBS) read?
**A.** 90%

**Q.** What about the “Cell viability (%)” value (120 mg/ml in PBS) of the same compound?
**A.** 90%

**Q.** O=S(=O)([O-])OOS(=O)(=O)[O-].[K+].[K+] [Potassium persulfate] was tested. Which “Cell viability (%)” value (10 mg/ml in PBS) did it give?
**A.** 90%

**Q.** Which “Cell viability (%)” value (5 mg/ml in PBS) does the source give for O=S(=O)([O-])OOS(=O)(=O)[O-].[Na+].[Na+] [Sodium persulfate] here?
**A.** 90%

**Q.** How did the “Cell viability (%)” value (0.2% (V/V) in PBS) turn out when CN(C)CCN(C)C [TEMED/PBS, N,N,N′,N′-Tetramethylethylenediamine] was run?
**A.** 10-30%
